Laboratory results as given in PMC5609913, “Structure based design, synthesis and activity studies of small hybrid molecules as HDAC and G9a dual inhibitors” (Oncotarget, 2017).
Like-named read-outs stand apart in the source and are kept apart here.

Assays:
Assay type in all cases: cell-based
[1] = system: MDA-MB-231 cells; test: Cell anti-proliferation / toxicity assay (CCK-8), MDA-MB-231; details: Homo sapiens, MDA-MB-231, 72 h, CCK-8, read-out: EC50 MDA-MB-231
Protocol: Initial tests designed around assessing whether a synergistic effect would be observed in real when a combination of G9a inhibitor and HDAC inhibitor used in conjunction.
Cell anti-proliferation assays were performed to determine the toxicity of these inhibitors. Several cell lines (MDA-MB-231, MCF-7 and A549) were incubated and then treated with varying concentrations of the inhibitors for 72 h, respectively. […] These compounds were further evaluated against the control cell line HEK293 to test their toxicity with a non-cancerous cell line.
A549, MDA-MB-231, MCF-7 and HEK293 cells were seeded at 8000-10000 cells (100 μl) in white 96-well plates and pre-incubate the plate for 24 h under standard cell culture conditions, respectively. And then the cells were exposed to the different inhibitors with various concentrations for 72 h. Finally, 10 μl of CCK-8 kit solution was added to each well and incubated for 3-4 hours under standard cell culture conditions, and the 96 well plates were measured the absorbance at 450 nm using Perkin–Elmer Wallac Victor ^3V 1420 multi label plate reader (Perkin–Elmer, Wellesley, USA). EC50s were calculated using GraphPad Prizm statistical package with sigmoidal variable slope dose response curve fit.

[2] = target: T1, G9a (Homo sapiens, UniProt Q96KQ7); test: H3K9Me2 cell immunofluorescence In-Cell Western (ICW) assay in MDA-MB-231; details: MDA-MB-231 cell line, 48 h exposure
T1 construct: endogenous in cells; host or cells: MDA-MB-231
T1 sequence (Q96KQ7 1-1210): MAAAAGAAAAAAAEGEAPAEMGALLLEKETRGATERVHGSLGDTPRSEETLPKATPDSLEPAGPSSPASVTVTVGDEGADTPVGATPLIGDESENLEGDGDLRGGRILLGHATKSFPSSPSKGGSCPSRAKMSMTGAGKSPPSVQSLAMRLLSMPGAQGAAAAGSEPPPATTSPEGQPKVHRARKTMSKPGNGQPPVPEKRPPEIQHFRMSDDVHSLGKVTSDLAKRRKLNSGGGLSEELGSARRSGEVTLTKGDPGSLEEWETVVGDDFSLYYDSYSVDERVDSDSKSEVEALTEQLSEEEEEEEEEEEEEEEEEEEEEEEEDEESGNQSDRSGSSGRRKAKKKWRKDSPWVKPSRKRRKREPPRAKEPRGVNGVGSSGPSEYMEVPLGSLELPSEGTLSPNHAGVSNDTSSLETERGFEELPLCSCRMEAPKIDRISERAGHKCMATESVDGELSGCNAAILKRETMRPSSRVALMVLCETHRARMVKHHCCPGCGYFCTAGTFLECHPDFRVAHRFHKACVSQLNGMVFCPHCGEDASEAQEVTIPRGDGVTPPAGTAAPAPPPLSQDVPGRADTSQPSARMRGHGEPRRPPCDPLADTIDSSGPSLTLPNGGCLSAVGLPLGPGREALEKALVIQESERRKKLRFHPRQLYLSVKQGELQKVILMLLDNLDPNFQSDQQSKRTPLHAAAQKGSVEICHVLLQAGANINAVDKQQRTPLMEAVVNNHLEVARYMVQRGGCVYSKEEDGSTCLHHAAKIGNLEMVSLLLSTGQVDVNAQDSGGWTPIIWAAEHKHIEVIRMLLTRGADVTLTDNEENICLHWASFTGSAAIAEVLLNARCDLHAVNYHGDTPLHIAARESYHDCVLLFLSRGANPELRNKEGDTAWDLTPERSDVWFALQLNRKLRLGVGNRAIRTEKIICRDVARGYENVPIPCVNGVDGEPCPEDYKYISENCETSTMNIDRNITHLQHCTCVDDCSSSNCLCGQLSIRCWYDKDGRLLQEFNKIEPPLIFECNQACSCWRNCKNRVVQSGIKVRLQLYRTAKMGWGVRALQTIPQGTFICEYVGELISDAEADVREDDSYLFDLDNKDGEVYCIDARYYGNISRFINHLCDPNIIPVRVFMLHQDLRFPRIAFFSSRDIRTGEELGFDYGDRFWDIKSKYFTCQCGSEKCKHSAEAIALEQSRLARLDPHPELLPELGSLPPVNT
Protocol: After the incubation, the media was removed and 100 μl fixation and permeabilization solution (2% formaldehyde in PBS) for fixation was added for 30 min. And then use 200 μl 0.1% Triton X100 in PBS washing solution to wash (allow wash to shake on a plate shaker for 5 min). After five washes, cells were blocked for 1 h with 150 μl blocking buffer to each well (1% BSA in PBS) (allow blocking at room temperature with moderate shaking on a plate shaker). After 1 h, remove the blocking buffer from the blocking step and add primary antibody in blocking buffer to cover the bottom of each well. […] The plates were read on an Odyssey CLX (LiCor) scanner at both 800 nm (H3K9me2 signal) and 700 nm (cell tag 700 stain signal) channels. IC50s were calculated using GraphPad Prizm statistical package with sigmoidal variable slope dose response curve fit.

[3] = system: MCF-7 cells; test: Cell anti-proliferation / toxicity assay (CCK-8), MCF-7; details: Homo sapiens, MCF7, 72 h, CCK-8, read-out: EC50 MCF-7
Protocol: Cell anti-proliferation assays were performed to determine the toxicity of these inhibitors. […] These compounds were further evaluated against the control cell line HEK293 to test their toxicity with a non-cancerous cell line.
And then the cells were exposed to the different inhibitors with various concentrations for 72 h. […] EC50s were calculated using GraphPad Prizm statistical package with sigmoidal variable slope dose response curve fit.

[4] = Supplementary Table 4, >100 = not reached at 100 μM
[5] = Table 6, mean ± SD of triplicates

SMILES | IC50 [2] | EC50 [1, 4] | EC50 [3, 4] | EC50 [1, 5] | EC50 [3, 5]
COc1ccc2c(NCCNC(=O)CCCCCC(=O)NO)nc(N3CCCN(C)CC3)nc2c1 [Compound 22, N1-hydroxy-N7-(2-((7-methoxy-2-(4-methyl-1,4-diazepan-1-yl)quinazolin-4-yl)amino)ethyl)heptanediamide] | 60.6 ± 3.66 µM | > 100 µM | > 100 µM |  | 
COc1cc2nc(NCCNC(=O)CCCCCC(=O)NO)nc(NC3CCN(C(C)C)CC3)c2cc1OC [Compound 5a, N1-hydroxy-N7-(2-((4-((1-isopropylpiperidin-4-yl)amino)-6,7-dimethoxyquinazolin-2-yl)amino)ethyl)heptanediamide] | 66.6 ± 3.98 µM | > 100 µM | > 100 µM |  | 
COc1cc2nc(NCCNC(=O)CCCCCCC(=O)NO)nc(NC3CCN(C)CC3)c2cc1OC [Compound 4, N1-(2-((6,7-dimethoxy-4-((1-methylpiperidin-4-yl)amino)quinazolin-2-yl)amino)ethyl)-N8-hydroxyoctanediamide] | 96.7 ± 1.68 µM | > 100 µM | > 100 µM |  | 
COc1cc2nc(N3CCCN(C)CC3)nc(NC3CCN(C(=O)CCCCCCC(=O)NO)CC3)c2cc1OC [Compound 19, 8-(4-((6,7-dimethoxy-2-(4-methyl-1,4-diazepan-1-yl)quinazolin-4-yl)amino)piperidin-1-yl)-N-hydroxy-8-oxooctanamide] | 99.6 ± 3.13 µM | > 100 µM | > 100 µM |  | 
COc1cc2nc(NCCNC(=O)CCCCCCC(=O)NO)nc(NC3CCN(C(C)C)CC3)c2cc1OC [Compound 4a, N1-hydroxy-N8-(2-((4-((1-isopropylpiperidin-4-yl)amino)-6,7-dimethoxyquinazolin-2-yl)amino)ethyl)octanediamide] | 74.2 ± 1.94 µM | > 100 µM | > 100 µM |  | 
COc1ccc2c(NC3CCN(Cc4ccccc4)CC3)nc(NCCNC(=O)CCCCCCC(=O)NO)nc2c1 [Compound 13, N1-(2-((4-((1-benzylpiperidin-4-yl)amino)-7-methoxyquinazolin-2-yl)amino)ethyl)-N8-hydroxyoctanediamide] | 37.8 ± 2.8 µM |  |  | 89.3 ± 1.23 µM | 79.4 ± 2.72 µM

Continued by falling IC50 [2], values first:

IC50 [2] | SMILES | EC50 [1, 4] | EC50 [3, 4] | EC50 [1, 5] | EC50 [3, 5]
97.5 ± 2.78 µM | COc1cc2nc(N3CCCN(C)CC3)nc(NC3CCN(C(=O)CCCCCC(=O)NO)CC3)c2cc1OC [Compound 20, 7-(4-((6,7-dimethoxy-2-(4-methyl-1,4-diazepan-1-yl)quinazolin-4-yl)amino)piperidin-1-yl)-N-hydroxy-7-oxoheptanamide] | > 100 µM | > 100 µM |  | 
90.3 ± 3.75 µM | COc1ccc2c(NC3CCN(Cc4ccccc4)CC3)nc(NCCNC(=O)CCCC(=O)NO)nc2c1 [Compound 16, N1-(2-((4-((1-benzylpiperidin-4-yl)amino)-7-methoxyquinazolin-2-yl)amino)ethyl)-N5-hydroxyglutaramide] | 38.1 µM | 57.3 µM |  | 
87.4 ± 5.44 µM | COc1cc2nc(NCCNC(=O)CCCCCC(=O)NO)nc(NC3CCN(Cc4ccccc4)CC3)c2cc1OC [Compound 5b, N1-(2-((4-((1-benzylpiperidin-4-yl)amino)-6,7-dimethoxyquinazolin-2-yl)amino)ethyl)-N7-hydroxyheptanediamide] | 12.3 ± 3.27 µM | 74.6 ± 1.81 µM |  | 
76.7 ± 0.89 µM | COc1cc2nc(NCCNC(=O)CCCC(=O)NO)nc(NC3CCN(C)CC3)c2cc1OC [Compound 7, N1-(2-((6,7-dimethoxy-4-((1-methylpiperidin-4-yl)amino)quinazolin-2-yl)amino)ethyl)-N5-hydroxyglutaramide] | > 100 µM | > 100 µM |  | 
72.1 ± 1.37 µM | COc1ccc2c(NC3CCN(Cc4ccccc4)CC3)nc(NCCNC(=O)CCCCC(=O)NO)nc2c1 [Compound 15, N1-(2-((4-((1-benzylpiperidin-4-yl)amino)-7-methoxyquinazolin-2-yl)amino)ethyl)-N6-hydroxyadipamide] | 95.2 µM | > 100 µM |  | 
54.6 ± 3.05 µM | COc1cc2nc(NCCNC(=O)CCCC(=O)NO)nc(NC3CCN(C(C)C)CC3)c2cc1OC [Compound 7a, N1-hydroxy-N5-(2-((4-((1-isopropylpiperidin-4-yl)amino)-6,7-dimethoxyquinazolin-2-yl)amino)ethyl)glutaramide] | > 100 µM | > 100 µM |  | 
47 ± 3.33 µM | COc1ccc2c(NC3CCN(C)CC3)nc(NCCNC(=O)CCCCC(=O)NO)nc2c1 [Compound 15a, N1-hydroxy-N6-(2-((7-methoxy-4-((1-methylpiperidin-4-yl)amino)quinazolin-2-yl)amino)ethyl)adipamide] | 77.6 µM | > 100 µM |  | 
45.7 ± 1.76 µM | COc1ccc2c(NC3CCN(C)CC3)nc(NCCNC(=O)CCCC(=O)NO)nc2c1 [Compound 16a, N1-hydroxy-N5-(2-((7-methoxy-4-((1-methylpiperidin-4-yl)amino)quinazolin-2-yl)amino)ethyl)glutaramide] | 90.5 µM | > 100 µM |  | 
7.14 ± 1.62 µM | COc1ccc2c(NC3CCN(Cc4ccccc4)CC3)nc(NCCNC(=O)CCCCCC(=O)NO)nc2c1 [Compound 14, N1-(2-((4-((1-benzylpiperidin-4-yl)amino)-7-methoxyquinazolin-2-yl)amino)ethyl)-N7-hydroxyheptanediamide] |  |  | 10 ± 1.66 µM | 37.4 ± 2.2 µM
